Target: T1, G6sec1 (Homo sapiens, UniProt Q9BYG0)
T1 construct: made in house; host or cells: Sf21 insect cells infected with pVL1393-F2G6sec1-derived recombinant baculovirus
T1 sequence (Q9BYG0 36-378): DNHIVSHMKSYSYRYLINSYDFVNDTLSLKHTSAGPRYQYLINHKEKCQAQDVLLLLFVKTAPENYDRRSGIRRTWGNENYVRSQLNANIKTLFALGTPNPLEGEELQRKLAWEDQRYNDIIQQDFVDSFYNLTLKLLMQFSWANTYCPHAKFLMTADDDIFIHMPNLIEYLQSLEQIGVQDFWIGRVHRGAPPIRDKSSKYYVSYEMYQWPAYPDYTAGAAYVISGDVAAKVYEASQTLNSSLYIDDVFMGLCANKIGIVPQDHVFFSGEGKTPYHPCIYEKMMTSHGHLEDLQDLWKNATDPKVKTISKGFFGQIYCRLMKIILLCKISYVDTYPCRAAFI
Assay: β1,3-N-acetylglucosaminyltransferase activity of purified FLAG peptide-fused G6 polypeptide, 2-aminobenzamide-labeled oligosaccharide substrates
Assay type: biochemical
Details: for Relative activity (%) Test 1 G6sec1: 2-aminobenzamide-labeled oligosaccharides, LNnT defined as 100%
Description: β1,3-N-Acetylglucosaminyltransferase activity of the FLAG peptide-fused G6 polypeptide secreted and produced in insect cells was measured by using the eluate prepared in Example 8(6). The method of Example 7 was used for the activity measurement.
As substrates, oligosaccharides [LNnT, Galβ1-4GlcNAcβ1-3Galβ1-4GlcNAc (hereinafter referred to as “2LN”), Galβ1-4GlcNAcβ1-3Galβ1-4GlcNAcβ1-3Galβ1-4GlcNAc (hereinafter referred to as “3LN”), Galβ1-4GlcNAcβ1-3Galβ1-4GlcNAcβ1-3Galβ1-4GlcNAcβ1-3Galβ1-4GlcNAc (hereinafter referred to as “4LN”), Galβ1-4GlcNAcβ1-3Galβ1-4GlcNAcβ-3Galβ1-4GlcNAcβ1-3Galβ1-4GlcNAcβ1-3Galβ1-4GlcNAc (hereinafter referred to as “5LN”), or Galβ1-4(SO3-6)GlcNAcβ1-3Galβ1-4(SO3-6)GlcNAc (hereinafter referred to as “L2L2”)] were labeled with 2-aminobenzamide and used. 2-Aminobenzamide-labeling of oligosaccharides was carried out using SIGMA 2AB glycan labeling kit (manufactured by Oxford Glycoscience) according to the manufacture's instructions of the kit. LNnT was purchased from Oxford Glycosystems. Other oligosaccharides were obtained from Seikagaku Corporation.
Specifically, the reaction was carried out at 37° C. for 16 hours in 20 μl of an assay solution [150 mmol/l sodium cacodylate (pH 7.2), 50 mmol/l UDP-GlcNAc (manufactured by SIGMA), 0.4% Triton CF-54, 10 mmol/l MnCl2, 5 μmol/12-aminobenzamide-labeled sugar chain substrate, the above purified enzyme solution], and then the product was detected by high performance liquid chromatography (HPLC, details will be described below). […]
The assay solution after completion of the reaction was treated at 100° C. for 5 minutes and then mixed with 50 μl of pure water for HPLC and centrifuged at 10,000×g for 5 minutes to obtain the supernatant. To a tube containing the assay solution, 50 μl of pure water for HPLC was added again, the tube was washed, and suparnatant was obtained by centrifugation at 10,000×g for 5 minutes and was combined with the first supernatant. Next, the supernatant was passed through Ultrafree-MC column (manufactured by Millipore) and a portion thereof (10 μl) was subjected to HPLC. The Ultrafree-MC column was used according to the method described in the manufacture's instructions attached thereto.
The HPLC was carried out using TSK-gel ODS-80Ts Column (4.6×300 mm; manufactured by TOSOH) as a column and 0.02 mol/l ammonium acetate buffer containing 7% methanol (pH 4.0) as an eluant at an elution temperature of 50° C. and a flow rate of 1 ml/min.
The product was detected using a fluorescence spectrophotometer FP-920 (manufactured by JASCO Corporation) (excitation wavelength: 330 nm, radiation wavelength: 420 nm).

Row | Relative activity (%) Test 1 G6sec1 [%] | conversion efficiency of the substrate (G6sec1-adsorbed ANTI-FLAG M1 AFFINITY GEL used as enzyme) [%] | conversion efficiency of the substrate into the product (G6sec1 eluate 1.5 μl, 2-aminobenzamide-labeled substrate, 37° C., 16 hours (Test 1)) [%] | Structure (SMILES)
1 | 81.4 |  |  | CC(=O)N[C@H]1[C@H](O[C@H]2[C@@H](O)[C@@H](CO)O[C@@H](O[C@H]3[C@H](O)[C@@H](NC(C)=O)C(O)O[C@@H]3CO)[C@@H]2O)O[C@H](CO)[C@@H](O[C@@H]2O[C@H](CO)[C@H](O)[C@H](O)[C@H]2O)[C@@H]1O (stereo partly shown) [2LN, Galβ1-4GlcNAcβ1-3Galβ1-4GlcNAc]
2 | 100 | 6.64 | 9.85 | CC(=O)N[C@H]1[C@H](O[C@H]2[C@@H](O)[C@@H](CO)O[C@@H](O[C@H]3[C@H](O)[C@@H](O)C(O)O[C@@H]3CO)[C@@H]2O)O[C@H](CO)[C@@H](O[C@@H]2O[C@H](CO)[C@H](O)[C@H](O)[C@H]2O)[C@@H]1O (mixture of isomers) [LNnT, lacto-N-neotetraose]
